Patent publication EP4789671A1, “PHARMACEUTICAL COMPOSITION CONTAINING URACIL DERIVATIVE” (priority 2023, dated 2025)
Values joined by “and” are separate entries in the source; they are usually repeats but may differ in a detail not shown here. Equal values may be shown once. Read-outs that look alike come from different tables or passages of the source.

Assays:
[1] = biological target: T1, Recombinant SARS-CoV-2 3CL Protease (Severe acute respiratory syndrome coronavirus 2, UniProt P0DTD1); assay: Inhibitory activity test on SARS-CoV-2 3CL protease (Test Example 2-1); type: biochemical; conditions: 8 µM substrate, 6 nM or 0.6 nM enzyme, 3 to 5 hours
T1 construct: Recombinant SARS-CoV-2 3CL Protease; purchased

SARS-CoV-2 [2] = assay: Cytopathic effect (CPE) suppression test using HEK293T/ACE2-TMPRSS2 cells (Test Example 1); type: cell-based; conditions: Severe acute respiratory syndrome coronavirus 2, HEK-293T, 72 h
[3] = test system: SARS-CoV-2 hCoV-19/Japan/TY7-501/2021; assay: Effect of human, mouse and hamster sera on anti-SARS-CoV-2 activity (Test Example 7); type: cell-based; conditions: Severe acute respiratory syndrome coronavirus 2, 24 h, VeroE6/TMPRSS2 cells, viral RNA, 1 day
[4] = test system: SARS-CoV-2 hCoV-19/Japan/TY41-702/2022 (Omicron BE.1/BA.5-like); assay: Viral proliferation-suppression effect using human airway epithelial cells (Test Example 8); type: cell-based; conditions: Severe acute respiratory syndrome coronavirus 2, Epithelial cell, 48 h
[5] = Cytotoxicity in MRC-5 cells in the absence of virus (Test Example 5); type: cell-based; conditions: human
Experimental: MRC-5 cells (2×10^4 cells/well) suspended in growth medium (DMEM supplemented with 10% FBS and penicillin-streptomycin) were seeded into 96-well plates on the day before infection. On the following day, HCoV-OC43 (300 TCID50/well) suspended in maintenance medium (MEM supplemented with 2% FBS and penicillin-streptomycin) was added to infect the cells for 1 hour. The viral fluid is then removed, maintenance medium containing the reagent to be tested is added, and cultured for 72 hours in a CO2 incubator. To evaluate the cytotoxicity of the reagent to be tested, the same procedure was performed in the absence of virus.
The plate that has been cultured for 72 hours is returned to room temperature, subsequently CellTiter-Glo (registered trademark) 2.0 is dispensed into each well, and the plate is mixed using a plate mixer. After standing for a predetermined period of time, the luminescent signal (Lum) is measured using a plate reader.

HCoV-229E = assay: microbe, parasite or virus in culture; type: cell-based; conditions: Human coronavirus 229E, MRC5; MRC-5 cells, 72 hours
SARS-CoV-2 [6] = assay: Inhibitory activity of cytopathic effect (CPE) in VeroE6/TMPRSS2 cells (Test Example 3); type: cell-based
[7] = test system: SARS-CoV-2 hCoV-19/Japan/TY41-702/2022 strain (Omicron BE.1/BA.5-like); set-up: species or system Syrian hamsters; conditions: hamster, in vivo
HCoV-OC43 = assay: microbe, parasite or virus in culture; type: cell-based; conditions: Betacoronavirus 1, OC43, MRC5; MRC-5 cells, 72 hours
[8] = test system: SARS-CoV-2 hCoV-19/Japan/TY41-702/2022 strain (Omicron BE.1/BA.5-like); set-up: species or system Syrian hamsters; conditions: hamster, in vivo; remark: listed apart in the source
[9] = test system: SARS-CoV-2 hCoV-19/Japan/TY11-927/2021; type: in vivo, Syrian hamsters; conditions: aged (11-month-old) hamsters
[10] = test system: SARS-CoV-2 hCoV-19/Japan/TY41-702/2022 strain (Omicron BE.1/BA.5-like); type: in vivo, Syrian hamsters
[11] = test system: SARS-CoV-2 hCoV-19/Japan/TY11-927/2021 (Delta); type: in vivo, Syrian hamsters; conditions: 4 days after initiation of co-housing

C#CCn1c(N2CC3(C2)CC(F)(F)C3)c(-c2ccc(F)c(Cl)c2)c(=O)n(-c2cncc(Cl)c2)c1=O [Compound II-1]
IC50 [1]: 0.68 nM

[2H]c1cc(F)c(Cl)c([2H])c1-c1c(N2CC3(C2)CC(F)(F)C3)n(CC#N)c(=[18O])n(-c2cncc(Cl)c2)c1=[18O] [Compound I-2]
EC50 (SARS-CoV-2 [2]): 2.36 nM

N#CCn1c(N2CC3(C2)CC(F)(F)C3)c(-c2ccc(F)c(Cl)c2)c(=O)n(-c2cncc(Cl)c2)c1=O [Compound I-1]
EC90 ([3]; extrapolated to 100% hamster serum by linear regression, read-out: Hamster serum PA-EC90): 8.17 nM
EC90 ([3]; extrapolated to 100% human serum by linear regression, read-out: Human serum PA-EC90): 7.9 nM
EC90 ([3]; extrapolated to 100% mouse serum by linear regression, read-out: Mouse serum PA-EC90): 19.8 nM
EC50 (SARS-CoV-2 [2]): 1.66 nM
EC90 [4]: 2.41 ± 1.61 nM
CC50 at 72 h [5]: > 100000 nM
EC50 (HCoV-229E): 3570 ± 510 nM
EC50 (SARS-CoV-2 [6]; Severe acute respiratory syndrome coronavirus 2, VeroE6/TMPRSS2, Alpha, B. 1. 1. 7, strain QHN002): 3.85 ± 1.41 nM
EC50 (SARS-CoV-2 [6]; Severe acute respiratory syndrome coronavirus 2, VeroE6/TMPRSS2, Ancestral, Pango lineage A, strain WK-521): 8.77 ± 1.92 nM
EC50 (SARS-CoV-2 [6]; Severe acute respiratory syndrome coronavirus 2, VeroE6/TMPRSS2, Beta, B. 1. 351, strain TY8-612): 9.64 ± 1.2 nM
EC50 (SARS-CoV-2 [6]; Severe acute respiratory syndrome coronavirus 2, VeroE6/TMPRSS2, Delta, AY. 122, strain TY11-927): 4.91 ± 1.29 nM
EC50 (SARS-CoV-2 [6]; Severe acute respiratory syndrome coronavirus 2, VeroE6/TMPRSS2, Gamma, P. 1, strain TY7-501): 8.91 ± 1.62 nM
EC50 (SARS-CoV-2 [6]; Severe acute respiratory syndrome coronavirus 2, VeroE6/TMPRSS2, Omicron BA. 1. 1, strain TY38-871): 2.63 nM
EC50 (SARS-CoV-2 [6]; Severe acute respiratory syndrome coronavirus 2, VeroE6/TMPRSS2, Omicron BA. 2, strain TY40-385): 7.38 ± 3.82 nM
EC50 (SARS-CoV-2 [6]; Severe acute respiratory syndrome coronavirus 2, VeroE6/TMPRSS2, Omicron BA. 2. 12. 1, strain TY41-721): 2.27 ± 0.26 nM
EC50 (SARS-CoV-2 [6]; Severe acute respiratory syndrome coronavirus 2, VeroE6/TMPRSS2, Omicron BA. 2. 75, strain TY41-716): 8.44 ± 1.25 nM
EC50 (SARS-CoV-2 [6]; Severe acute respiratory syndrome coronavirus 2, VeroE6/TMPRSS2, Omicron BA. 4. 1, strain TY41-703): 2.45 ± 0.4 nM
EC50 (SARS-CoV-2 [6]; Severe acute respiratory syndrome coronavirus 2, VeroE6/TMPRSS2, Omicron BA. 4. 6, strain TY41-763): 6.91 ± 1.21 nM
EC50 (SARS-CoV-2 [6]; Severe acute respiratory syndrome coronavirus 2, VeroE6/TMPRSS2, Omicron BA. 5. 2. 1, strain TY41-704): 6.8 ± 1.38 nM
EC50 (SARS-CoV-2 [6]; Severe acute respiratory syndrome coronavirus 2, VeroE6/TMPRSS2, Omicron BE. 1/BA. 5-like, strain TY41-702): 6.54 ± 3.49 nM
EC50 (SARS-CoV-2 [6]; Severe acute respiratory syndrome coronavirus 2, VeroE6/TMPRSS2, Omicron BF. 7, strain TY41-820): 9.49 ± 0.56 nM
EC50 (SARS-CoV-2 [6]; Severe acute respiratory syndrome coronavirus 2, VeroE6/TMPRSS2, Omicron BF. 7. 4. 1, strain TY41-828): 7.39 ± 1.97 nM
EC50 (SARS-CoV-2 [6]; Severe acute respiratory syndrome coronavirus 2, VeroE6/TMPRSS2, Omicron BQ. 1. 1, strain TY41-796): 11 ± 1.7 nM
EC50 (SARS-CoV-2 [6]; Severe acute respiratory syndrome coronavirus 2, VeroE6/TMPRSS2, Omicron CH. 1. 1. 11, strain TY41-832): 5.69 ± 2.44 nM
EC50 (SARS-CoV-2 [6]; Severe acute respiratory syndrome coronavirus 2, VeroE6/TMPRSS2, Omicron XBB. 1, strain TY41-795): 5.11 ± 2.15 nM
EC50 (SARS-CoV-2 [6]; Severe acute respiratory syndrome coronavirus 2, VeroE6/TMPRSS2, Omicron XBB. 1. 5, strain 23-018): 7.4 ± 1.08 nM
EC50 (SARS-CoV-2 [6]; Severe acute respiratory syndrome coronavirus 2, VeroE6/TMPRSS2, Omicron XBB. 1. 9. 1, strain TY41-951): 12.6 ± 0.9 nM
EC50 (SARS-CoV-2 [6]; Severe acute respiratory syndrome coronavirus 2, VeroE6/TMPRSS2, Omicron XBB. 1. 16, strain TY41-984): 7.06 ± 2 nM
EC50 (SARS-CoV-2 [6]; Severe acute respiratory syndrome coronavirus 2, VeroE6/TMPRSS2, Omicron XBF, strain TY41-831): 6.27 ± 3.3 nM
EC50 (SARS-CoV-2 [6]; Severe acute respiratory syndrome coronavirus 2, VeroE6/TMPRSS2, Omicron XE, strain TY41-686): 7.1 ± 2.59 nM
lung weight/body weight [7]: 8.24 mg/g and 5.75 mg/g and 5.57 mg/g
EC50 (HCoV-OC43): 92 ± 21 nM
plasma concentrations immediately before infection (3 mg/kg subcutaneous, administered one day prior to infection): 6.1 ng/mL
plasma concentrations immediately before infection (3 mg/kg subcutaneous, administered three days prior to infection): 5.9 ng/mL
plasma concentrations immediately before infection (10 mg/kg subcutaneous, administered one day prior to infection): 12.5 ng/mL
plasma concentrations immediately before infection (10 mg/kg subcutaneous, administered three days prior to infection): 3.0 ng/mL
body weight [8]: the decrease in body weight was suppressed
survival [9]: all hamsters survived until 10 days after infection
body weight loss ([9]; up to 10 days): suppression of the body weight loss was observed
body weight loss ([10]; hamster, in vivo): suppression of the body weight loss was observed
viral titers in nasal turbinate homogenates ([10]; hamster, in vivo): 4.80 log10 TCID50/mL and 3.36 log10 TCID50/mL and 5.38 log10 TCID50/mL and 5.01 log10 TCID50/mL
plasma concentration exhibiting the effect of suppressing viral proliferation in lung and nasal turbinate homogenates ([10]; hamster, in vivo, sc): ≥ 12 ng/mL
plasma concentrations at the time of viral infection exhibiting the effect of suppressing body weight loss ([10]; prophylactic subcutaneous administration): ≥ 6 ng/mL
numbers of non-infected hamsters (Contact) in which viral titers in nasal lavage fluid or supernatants of lung homogenate reached the detection limit (1.8 log10 TCID50/mL) or higher ([11]; 3 mg/kg single subcutaneous to Contact 12 hours prior to co-housing): 5/6
numbers of non-infected hamsters (Contact) in which viral titers in nasal lavage fluid or supernatants of lung homogenate reached the detection limit (1.8 log10 TCID50/mL) or higher ([11]; 10 mg/kg single subcutaneous to Contact 12 hours prior to co-housing): 6/6
numbers of non-infected hamsters (Contact) in which viral titers in nasal lavage fluid or supernatants of lung homogenate reached the detection limit (1.8 log10 TCID50/mL) or higher ([11]; 30 mg/kg single subcutaneous to Contact 12 hours prior to co-housing): 3/6
numbers of non-infected hamsters (Contact) in which viral titers in nasal lavage fluid or supernatants of lung homogenate reached the detection limit (1.8 log10 TCID50/mL) or higher ([11]; 90 mg/kg single subcutaneous to Contact 12 hours prior to co-housing): 0/6
